Read-outs that look alike come from different tables or passages of the source.
Assays:
[1] = molecular target: T1, FLuc-C-HiBiT (firefly luciferase) (Photinus pyralis, UniProt P08659, form not given/L550V); experiment: Firefly luciferase (FLuc) enzymatic luminescence assay, FLuc-C-HiBiT; type: biochemical; details: FLuc-C-HiBiT qHTS, FLuc enzymatic assay; for IC50: read-out: IC50, FLuc E
Experimental: (§1) The enzyme activity of FLuc-N-HiBiT, FLuc-C-HiBiT, and FLuc-C-NLuc was measured similar to P. pyralis firefly luciferase (FLuc) as previously described. […] Compounds and controls were added to each plate as described in Supplementary Data 8 with a Hornet pintool system (Wako Automation). Compounds were incubated with respective enzymes for 30–60 min at room temperature protected from light and covered by solid metal lid to prevent evaporation. […] Luciferin was incubated with FLuc enzyme for 5 min before FLuc activity was then measured on a ViewLux CCD imager (PerkinElmer), with exposure times up to ten seconds with medium to high gain settings. Data were normalized to average no enzyme control as 100% enzyme inhibition and average DMSO neutral control. See Supplementary Table 4 for additional details.
(§2) Supplementary Table 4. Protocol for Firefly luciferase (FLuc) and NanoLuc (NLuc) enzymatic
(§3) Supplementary Table 4: Protocol for Firefly luciferase (FLuc) and NanoLuc (NLuc) enzym atic lum inescence assay
(§4) Firefly luciferase (FLuc) enzym atic lum inescence assay
(§5) Sequence Param eter Value Description
(§6) No enzym e control (colum n 1) and enzym e solution (1- 10 nM FLuc enzym e) in FLuc assay
(§7) 1 Reagent 4 µLbuffer; white/solid bottom , m edium bind, high base plates (Greiner), dispensed with BioRaptr
(§8) com pounds transferred to respective colum ns with Pintool
(§9) 2b Test Com pounds 23 nLconcentration range) in colum ns 5- 48; com pounds transferred to respective wells with
(§10) 3 Incubation 30 m in Incubate enzym e + com pounds at am bient tem p for 30 m in, protected from light
(§11) 4 Reagent 3 µLAdd 3 µL of D-luciferin substrate solution to each well (final concentration 10 µM); dispensed
(§12) 5 Detector ViewLux Read plate lum inescence (Exposure = 1- 10 sec; Gain = Medium -high; Speed = Slow;
(§13) Dispensing solution was diluted in 1X PBS, pH 7.4. […]

[2] = molecular target: T1, FLuc-C-HiBiT (firefly luciferase); experiment: SDR assay, FLuc-C-HiBiT; details: for pSDR50, SDR (+ ATP) / pSDR50, SDR (-ATP) / EC50: FLuc-C-HiBiT qHTS; for Pearson r (SDR+ATP vs. E): correlation of SDR (+ATP) with the FLuc enzymatic assay (E); for Pearson r (SDR-ATP vs. E): correlation of SDR (-ATP) with the FLuc enzymatic assay (E); for % Activity (max response, + ATP) / % Activity (max response, - ATP): SDR max. response, clade S
[3] = molecular target: FLuc-C-NLuc (firefly luciferase) (Photinus pyralis, UniProt P08659, form not given/L550V); experiment: SDR assay, FLuc-C-NLuc; details: - ATP
Chain of FLuc-C-NLuc (firefly luciferase) (P08659 2-550 L550V, form open): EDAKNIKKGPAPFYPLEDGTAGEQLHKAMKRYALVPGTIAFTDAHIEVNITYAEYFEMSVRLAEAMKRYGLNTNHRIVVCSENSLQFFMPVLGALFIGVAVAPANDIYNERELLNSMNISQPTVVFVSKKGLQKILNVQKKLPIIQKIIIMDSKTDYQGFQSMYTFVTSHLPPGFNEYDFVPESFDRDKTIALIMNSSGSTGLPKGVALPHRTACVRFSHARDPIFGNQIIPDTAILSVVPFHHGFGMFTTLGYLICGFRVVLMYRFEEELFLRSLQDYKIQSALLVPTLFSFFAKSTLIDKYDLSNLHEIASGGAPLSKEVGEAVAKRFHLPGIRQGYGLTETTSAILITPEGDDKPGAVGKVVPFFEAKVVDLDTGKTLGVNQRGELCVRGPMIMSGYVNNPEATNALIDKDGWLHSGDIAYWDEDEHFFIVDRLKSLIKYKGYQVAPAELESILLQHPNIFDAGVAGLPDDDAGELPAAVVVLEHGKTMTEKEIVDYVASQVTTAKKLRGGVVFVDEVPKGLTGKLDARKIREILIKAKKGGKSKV

[4] = molecular target: P. pyralis FLuc (Photinus pyralis, UniProt P08659); experiment: FLuc enzymatic luminescence assay, P. pyralis FLuc; type: biochemical; parameters: CC-v2: scale not given here; details: for Efficacy (%) FLuc E / IC50: FLuc enzymatic assay; for Efficacy (%) FLuc E: Clade S follow-up; for IC50: read-out: IC50 or SDR50 (mM) FLuc E; for AC50 / CC-v2 / Efficacy / Hill Coef / Inf Activity / Max Resp / Zero Activity: Sample Data Type FLuc-Km
Chain of P. pyralis FLuc (P08659 whole entry): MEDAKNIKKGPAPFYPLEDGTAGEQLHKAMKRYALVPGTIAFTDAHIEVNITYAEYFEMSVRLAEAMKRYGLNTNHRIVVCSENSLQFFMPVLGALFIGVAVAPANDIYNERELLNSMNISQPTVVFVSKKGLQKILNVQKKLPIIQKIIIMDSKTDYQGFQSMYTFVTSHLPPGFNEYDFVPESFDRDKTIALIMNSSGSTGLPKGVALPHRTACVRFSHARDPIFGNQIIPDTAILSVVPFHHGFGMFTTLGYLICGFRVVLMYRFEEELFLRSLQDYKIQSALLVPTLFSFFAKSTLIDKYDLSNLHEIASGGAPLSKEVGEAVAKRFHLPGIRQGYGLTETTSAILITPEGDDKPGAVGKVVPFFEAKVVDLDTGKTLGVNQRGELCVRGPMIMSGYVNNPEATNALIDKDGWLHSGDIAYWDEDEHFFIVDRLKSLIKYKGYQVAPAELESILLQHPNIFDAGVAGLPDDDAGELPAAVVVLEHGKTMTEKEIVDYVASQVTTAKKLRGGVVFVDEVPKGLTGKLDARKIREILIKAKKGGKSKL
Experimental: as §1
Assays were run in the presence (solid symbols) or absence
(open symbols) of 10 µM ATP. Corresponding SMIL E S for NC GC IDs and source data are provided in
Supplementary Data 3 and as a Source Data file. 10
as §2, §3, §4, §5, §6, §7, §8, §9, §10, §11, §12, §13

[5] = molecular target: T2, FLuc-C-HiBiT (Photinus pyralis, UniProt P08659); experiment: biochemical; details: enzyme activity, 10 uM ATP; read-out: IC50 or SDR50 (mM) / FLuc E
T2 construct: firefly luciferase with C-terminal HiBiT tag, E. coli expressed
T2 sequence (P08659 whole entry, looked up): as the sequence (P08659 whole entry) above

[6] = read-out: SDR50, SDR (+ ATP), SDR assay with ATP
[7] = read-out: SDR50, SDR (-ATP), SDR assay without ATP

T1 sequence (P08659 2-550 L550V, form open): as the sequence (P08659 2-550 L550V, form open) above

CCOc1ccc(/C=C/c2nc3ccccc3n2[S+](=O)([O-])c2cccc(Cl)c2)cc1 [NCGC00108246-01]
pIC50, FLuc E [1]: 6.405 | IC50 [1]: 0.394 µM | pSDR50, SDR (+ ATP) ([2]; SDR assay with ATP): 5.605 | pSDR50, SDR (-ATP) ([2]; SDR assay without ATP): 5.505 | Pearson r (SDR+ATP vs. E) [2]: 0.892 | Pearson r (SDR-ATP vs. E) [2]: 0.888 | EC50 [2, 6]: 2.48 µM | EC50 [2, 7]: 3.13 µM

CSc1ccc(/C=C/c2nc3ccccc3n2[S+](=O)([O-])c2ccc(Br)cc2)cc1 [NCGC00108248-01]
pIC50, FLuc E [1]: 6.155 | IC50 [1]: 0.7 µM | pSDR50, SDR (+ ATP) ([2]; SDR assay with ATP): 5.355 | pSDR50, SDR (-ATP) ([2]; SDR assay without ATP): 5.105 | Pearson r (SDR+ATP vs. E) [2]: 0.917 | Pearson r (SDR-ATP vs. E) [2]: 0.903 | EC50 [2, 6]: 4.42 µM | EC50 [2, 7]: 7.85 µM

CSc1ccc(/C=C/c2nc3ccccc3n2[S+](=O)([O-])c2cccc(Cl)c2)cc1 [NCGC00108250-01]
pIC50, FLuc E [1]: 6.255 | IC50 [1]: 0.556 µM | pSDR50, SDR (+ ATP) ([2]; SDR assay with ATP): 5.705 | pSDR50, SDR (-ATP) ([2]; SDR assay without ATP): 5.705 | Pearson r (SDR+ATP vs. E) [2]: 0.941 | Pearson r (SDR-ATP vs. E) [2]: 0.919 | EC50 [2, 6]: 1.97 µM | EC50 [2, 7]: 1.97 µM

Cc1ccc(C2Cn3cnc(C(=O)N4CCC(C(=O)NCCC(C)C)CC4)c3CO2)cc1 (stereo not shown) [NCGC00422121-01]
Efficacy (%) FLuc-C-NLuc SDR (-ATP) [3]: 0.00% | % Activity (max response, + ATP) [2]: 49.59% | % Activity (max response, - ATP) [2]: 0.00% | Efficacy (%) FLuc E [4]: -26.32% | IC50 [4]: 0.0139 mM | AC50 [4]: 13.9 µM | CC-v2 [4]: -2.4 | Efficacy [4]: -26.32 | Hill Coef [4]: 1.21 | Inf Activity [4]: -27.95 | Max Resp [4]: -21.63 | Zero Activity [4]: -1.63

CC(C)CCNC(=O)C1CCN(C(=O)c2ncn3c2COC(c2ccc(F)cc2)C3)CC1 (stereo not shown) [NCGC00423180-01]
Efficacy (%) FLuc-C-NLuc SDR (-ATP) [3]: 0.00% | % Activity (max response, + ATP) [2]: 35.19% | % Activity (max response, - ATP) [2]: 0.00% | Efficacy (%) FLuc E [4]: -22.97% | CC-v2 [4]: 4 | Efficacy [4]: -22.97 | Hill Coef [4]: 2.25 | Inf Activity [4]: -22.47 | Max Resp [4]: -18.73 | Zero Activity [4]: 0.50

CCC(CC)NC(=O)C1CCN(C(=O)c2ncn3c2COC(c2ccc(F)cc2)C3)CC1 (stereo not shown) [NCGC00430454-01]
Efficacy (%) FLuc-C-NLuc SDR (-ATP) [3]: 0.00% | % Activity (max response, + ATP) [2]: 9.00% | % Activity (max response, - ATP) [2]: 0.00% | Efficacy (%) FLuc E [4]: -16.84% | CC-v2 [4]: 4 | Efficacy [4]: -16.84 | Hill Coef [4]: 1.51 | Inf Activity [4]: -9.34 | Max Resp [4]: -6.95 | Zero Activity [4]: 7.50

CC(C)NC(=O)C1CCN(C(=O)c2ncn3c2COC(c2ccccc2)C3)CC1 (stereo not shown) [NCGC00449767-01]
IC50 [5]: 3.51 µM | Efficacy (%) FLuc-C-NLuc SDR (-ATP) [3]: 0.00% | % Activity (max response, + ATP) [2]: 350.87% | % Activity (max response, - ATP) [2]: 0.00% | Efficacy (%) FLuc E [4]: -88.78% | IC50 [4]: 0.00248 mM | AC50 [4]: 2.48 µM | CC-v2 [4]: -1.1 | Efficacy [4]: -88.78 | Hill Coef [4]: 1.10 | Inf Activity [4]: -90.78 | Max Resp [4]: -86.46 | Zero Activity [4]: -2.01

CC(C)C(=O)Nc1cc(-c2nc3ccccc3s2)ccc1Cl [NCGC00596190-01]
IC50 [5]: > 30 µM

CC(=O)Oc1ccccc1C(=O)Nc1ccc(-c2nc3ccc(C)cc3s2)cc1 [NCGC00596510-01]
IC50 [5]: 8.81 µM

COc1ccc(C(=O)Nc2cccc(-c3nc4ccccc4s3)c2)cc1 [NCGC00596810-02]
IC50 [5]: > 30 µM

CCCN1C(=O)c2ccc(-c3nc4ccccc4s3)cc2C1=O [NCGC00597617-01]
IC50 [5]: 1.97 µM

Cc1ccc2nc(-c3ccc(NC(=O)CSc4nnc(C)s4)cc3)sc2c1 [NCGC00598135-01]
IC50 [5]: 0.624 µM

O=C(Nc1ccc(-c2nc3ccccc3s2)cc1)c1c(F)c(F)c(F)c(F)c1F [NCGC00598374-01]
IC50 [5]: > 30 µM

CC1CCCCN1c1ncnc2c1cnn2-c1ccccc1 (stereo not shown) [NCGC00605414-01]
IC50 [5]: 1.11 µM

CN(C)C1CCN(c2ncnc3c2cnn3-c2ccccc2)CC1 [NCGC00608115-01]
IC50 [5]: > 30 µM

OCC1CCN(c2ncnc3c2cnn3-c2ccccc2)CC1 [NCGC00608116-01]
IC50 [5]: 12.4 µM

NC(=O)CC1CCN(c2ncnc3c2cnn3-c2ccccc2)CC1 [NCGC00610672-01]
IC50 [5]: > 30 µM

CCOC1CCCN(c2ncnc3c2cnn3-c2ccccc2)C1 (stereo not shown) [NCGC00616559-01]
IC50 [5]: 9.89 µM

OCC1CCCN(c2ncnc3c2cnn3-c2ccccc2)C1 (stereo not shown) [NCGC00624837-01]
IC50 [5]: 0.394 µM

OC1CCN(c2ncnc3c2cnn3-c2ccccc2)CC1 [NCGC00626234-01]
IC50 [5]: 15.7 µM

CC(C)C(=O)NC1CCN(Cc2ccc(-c3nc4cccc(Cl)c4s3)cc2)CC1 [NCGC00632240-01]
IC50 [5]: > 30 µM

O=C(Nc1ccccc1-c1nc2ccccc2s1)c1ccccc1F [NCGC00636212-01]
IC50 [5]: > 30 µM

O=C(Nc1cccc(-c2nc3ccccc3s2)c1)N1CCC(O)C1 (stereo not shown) [NCGC00638360-01]
IC50 [5]: 8.81 µM

CSC(=S)Nc1ccc(-c2nc3ccc(C)cc3s2)cc1 [NCGC00640908-01]
IC50 [5]: 2.48 µM

NC(=O)COC(=O)c1ccccc1-c1nc2ccccc2s1 [NCGC00641952-01]
IC50 [5]: > 30 µM

NC(=O)C1CCCN(c2ncnc3c2cnn3-c2ccccc2)C1 (stereo not shown) [NCGC00644764-01]
IC50 [5]: 11.1 µM

O=C(O)c1ccccc1-c1nc2ccccc2s1 [NCGC00645508-01]
IC50 [5]: > 30 µM

Cc1cc(Cl)ccc1-n1ncc2c(N3CCCCC3)ncnc21 [NCGC00651954-01]
IC50 [5]: 4.42 µM

OCCN1CCN(c2nc(N3CCCCC3)c3cnn(-c4ccc(Cl)cc4)c3n2)CC1 [NCGC00652352-01]
IC50 [5]: > 30 µM

Fc1ccc(-n2ncc3c(N4CCCCC4)nc(NN4CCOCC4)nc32)cc1 [NCGC00652353-01]
IC50 [5]: > 30 µM

Cc1ccc(-n2ncc3c(N4CCCCC4)nc(NCCCO)nc32)cc1 [NCGC00652354-01]
IC50 [5]: > 30 µM

CNc1ccc2cc(-c3nc4ccc(C(=O)O)cc4s3)ccc2c1 [NCGC00655706-01]
IC50 [5]: 0.007 µM

CCC(CC)COC(=O)[C@H](C)N[P@](=O)(OC[C@H]1O[C@@](C#N)(c2ccc3c(N)ncnn23)[C@H](O)[C@@H]1O)Oc1ccccc1 [NCGC00686694-05]
IC50 [5]: > 30 µM

Clc1cccc(-c2nc3ccccc3s2)c1 [NCGC00687703-01]
IC50 [5]: 8.81 µM

O=C(CSc1nnc2ccccn12)Nc1cccc(-c2nc3ccccc3s2)c1 [NCGC00688053-01]
IC50 [5]: > 30 µM

O=C(Nc1cccc(-c2nc3ccccc3s2)c1)c1cc2ccccc2oc1=O [NCGC00688715-01]
IC50 [5]: > 30 µM

Cc1nonc1COc1ccc(C(=O)Nc2cccc(-c3nc4ccccc4s3)c2)cc1 [NCGC00688799-01]
IC50 [5]: 9.89 µM

CCOc1ccc(NC(=O)Nc2cccc(C(=O)O)c2)cc1 [NCGC00689880-01]
IC50 [5]: 0.00881 µM

CCC[C@H](C)Oc1nc(N)c2[nH]c(=O)n(CCCCCN3CCCCC3)c2n1 [NCGC00856659-01]
IC50 [5]: > 30 µM

CCCCOc1nc(N)c2[nH]c(=O)n(CCCN(CCCN3CCOCC3)Cc3cccc(CC(=O)OC)c3)c2n1 [NCGC00886690-01]
IC50 [5]: > 30 µM

O=C(O)c1cccc(-c2noc(-c3ccccc3F)n2)c1 [PTC124]
IC50 [5]: 0.00154 µM
